Measured values from publication PMC5218480 (PLoS ONE, 2017).

Tested on: MV-4-11 cells
Test: Gene expression microarray analysis (Affymetrix PrimeView) and GSEA
Assay type: cell-based, human
Set-up: RFU PODN (11730768_x_at) / Fold change /veh PODN (11730768_x_at) / RFU LINC00158 (11744669_a_at) / Fold change /veh LINC00158 (11744669_a_at) / RFU DUSP10 (11751237_a_at) / Fold change /veh DUSP10 (11751237_a_at) / RFU ID3 (11757404_x_at) / Fold change /veh ID3 (11757404_x_at) / RFU PLEKHG5 (11737974_s_at) / Fold change /veh PLEKHG5 (11737974_s_at) / RFU LRRC4B (11730491_at) / Fold change /veh LRRC4B (11730491_at) / RFU GIMAP4 (11747438_a_at) / Fold change /veh GIMAP4 (11747438_a_at) / RFU KRT8 (11758183_x_at) / Fold change /veh KRT8 (11758183_x_at) / RFU CNN1 (11734310_a_at) / Fold change /veh CNN1 (11734310_a_at) / RFU VPS37D (11726825_at) / Fold change /veh VPS37D (11726825_at) / RFU C10orf10 (11716522_x_at) / Fold change /veh C10orf10 (11716522_x_at) / RFU KIR2DL2 /// KIR2DL4 /// KIR2DL5A /// KIR2DL5B /// KIR2DS1 /// KIR2DS2 /// KIR2DS3 /// KIR2DS4 /// KIR3DL3 /// KIR3DL3 /// KIR3DS1 (11738374_at) / Fold change /veh KIR2DL2 /// KIR2DL4 /// KIR2DL5A /// KIR2DL5B /// KIR2DS1 /// KIR2DS2 /// KIR2DS3 /// KIR2DS4 /// KIR3DL3 /// KIR3DL3 /// KIR3DS1 (11738374_at) / RFU C1QL1 (11718748_at) / Fold change /veh C1QL1 (11718748_at) / RFU TMPRSS4 (11747572_a_at) / Fold change /veh TMPRSS4 (11747572_a_at) / RFU HAMP (11756126_x_at) / Fold change /veh HAMP (11756126_x_at) / RFU RNFT2 (11725882_a_at) / Fold change /veh RNFT2 (11725882_a_at) / RFU NR4A2 (11747474_a_at) / Fold change /veh NR4A2 (11747474_a_at) / RFU ABCC12 (11746883_a_at) / Fold change /veh ABCC12 (11746883_a_at) / RFU TMEM136 (11760407_x_at) / Fold change /veh TMEM136 (11760407_x_at) / RFU CLDN22 /// WWC2 (11732394_at) / Fold change /veh CLDN22 /// WWC2 (11732394_at) / RFU HLA-DPB1 (11760878_x_at) / Fold change /veh HLA-DPB1 (11760878_x_at) / RFU SPINT1 (11716480_a_at) / Fold change /veh SPINT1 (11716480_a_at) / RFU GAP43 (11754022_s_at) / Fold change /veh GAP43 (11754022_s_at) / RFU A4GNT (11735810_at) / Fold change /veh A4GNT (11735810_at) / RFU PRB3 (11715151_x_at) / Fold change /veh PRB3 (11715151_x_at) / RFU TUBB4B (11761932_at) / Fold change /veh TUBB4B (11761932_at) / RFU CAPN14 (11732068_a_at) / Fold change /veh CAPN14 (11732068_a_at) / RFU TMCC2 (11721928_a_at) / Fold change /veh TMCC2 (11721928_a_at) / RFU IRGQ (11745062_a_at) / Fold change /veh IRGQ (11745062_a_at) / RFU FAM174B (11720279_a_at) / Fold change /veh FAM174B (11720279_a_at) / RFU TMPRSS4 (11748680_a_at) / Fold change /veh TMPRSS4 (11748680_a_at) / RFU FAM212B (11763350_a_at) / Fold change /veh FAM212B (11763350_a_at) / RFU PLEKHG5 (11743358_a_at) / Fold change /veh PLEKHG5 (11743358_a_at) / RFU ZSCAN30 (11745921_a_at) / Fold change /veh ZSCAN30 (11745921_a_at) / RFU CMKLR1 (11741424_a_at) / Fold change /veh CMKLR1 (11741424_a_at) / RFU LOC101060620 /// MAPK8IP1 (11723275_at) / Fold change /veh LOC101060620 /// MAPK8IP1 (11723275_at) / RFU SPTSSB (11747773_x_at) / Fold change /veh SPTSSB (11747773_x_at) / RFU PRSS12 (11739890_at) / Fold change /veh PRSS12 (11739890_at) / RFU BIN1 (11741810_x_at) / Fold change /veh BIN1 (11741810_x_at) / RFU WNT11 (11732464_a_at) / Fold change /veh WNT11 (11732464_a_at) / RFU C10orf10 (11716521_a_at) / Fold change /veh C10orf10 (11716521_a_at) / RFU C5orf56 (11738089_at) / Fold change /veh C5orf56 (11738089_at) / RFU CYB561 (11721691_x_at) / Fold change /veh CYB561 (11721691_x_at) / RFU ANKRD19P (11752326_a_at) / Fold change /veh ANKRD19P (11752326_a_at) / RFU OR2T12 /// OR2T33 /// OR2T8 (11738714_s_at) / Fold change /veh OR2T12 /// OR2T33 /// OR2T8 (11738714_s_at) / RFU VCAN (11748164_a_at) / Fold change /veh VCAN (11748164_a_at) / RFU JSRP1 (11732532_at) / Fold change /veh JSRP1 (11732532_at) / RFU KRTAP10-11 (11738290_x_at) / Fold change /veh KRTAP10-11 (11738290_x_at) / RFU MYO3A (11730013_a_at) / Fold change /veh MYO3A (11730013_a_at) / RFU EBF3 (11725865_a_at) / Fold change /veh EBF3 (11725865_a_at) / RFU CAMK2N1 (11719241_x_at) / Fold change /veh CAMK2N1 (11719241_x_at) / RFU C5orf56 (11738088_a_at) / Fold change /veh C5orf56 (11738088_a_at) / RFU OLFML3 (11715873_a_at) / Fold change /veh OLFML3 (11715873_a_at) / RFU LOC100653217 /// NTM (11731650_a_at) / Fold change /veh LOC100653217 /// NTM (11731650_a_at) / RFU MAPK11 (11762145_a_at) / Fold change /veh MAPK11 (11762145_a_at) / RFU FIZ1 (11724087_x_at) / Fold change /veh FIZ1 (11724087_x_at) / RFU OASL (11726364_x_at) / Fold change /veh OASL (11726364_x_at) / RFU SOX15 (11748057_x_at) / Fold change /veh SOX15 (11748057_x_at) / RFU CD79A (11719716_a_at) / Fold change /veh CD79A (11719716_a_at) / RFU HIST1H1D (11736915_at) / Fold change /veh HIST1H1D (11736915_at) / RFU CASKIN2 (11723855_a_at) / Fold change /veh CASKIN2 (11723855_a_at) / RFU LOC730098 (11760151_x_at) / Fold change /veh LOC730098 (11760151_x_at) / RFU OR4N2 (11742367_at) / Fold change /veh OR4N2 (11742367_at) / RFU PRRT2 (11749266_a_at) / Fold change /veh PRRT2 (11749266_a_at) / RFU SNX32 (11753110_a_at) / Fold change /veh SNX32 (11753110_a_at) / RFU CDHR5 (11726645_a_at) / Fold change /veh CDHR5 (11726645_a_at) / RFU RCAN1 (11760418_a_at) / Fold change /veh RCAN1 (11760418_a_at) / RFU FAM167A (11723789_a_at) / Fold change /veh FAM167A (11723789_a_at) / RFU FAM26E (11764081_at) / Fold change /veh FAM26E (11764081_at) / RFU ISYNA1 (11749810_s_at) / Fold change /veh ISYNA1 (11749810_s_at) / RFU ACY1 (11761880_at) / Fold change /veh ACY1 (11761880_at) / RFU 11764098_at / Fold change /veh 11764098_at / RFU SAMD14 (11745864_x_at) / Fold change /veh SAMD14 (11745864_x_at) / RFU NPB (11741838_a_at) / Fold change /veh NPB (11741838_a_at) / RFU TMPRSS6 (11731388_a_at) / Fold change /veh TMPRSS6 (11731388_a_at) / RFU KRTAP10-2 (11738614_at) / Fold change /veh KRTAP10-2 (11738614_at) / RFU ARHGAP8 /// PRR5-ARHGAP8 (11727945_x_at) / Fold change /veh ARHGAP8 /// PRR5-ARHGAP8 (11727945_x_at) / RFU KRTAP5-7 /// NADSYN1 (11734609_at) / Fold change /veh KRTAP5-7 /// NADSYN1 (11734609_at) / RFU RASL12 (11751679_a_at) / Fold change /veh RASL12 (11751679_a_at) / RFU CDKN2B (11736163_a_at) / Fold change /veh CDKN2B (11736163_a_at) / RFU PRF1 (11729649_at) / Fold change /veh PRF1 (11729649_at) / RFU, ZNF638 /// ZNF638-IT1 / Fold change vs veh, ZNF638 /// ZNF638-IT1 / RFU, PANK3 / Fold change vs veh, PANK3 / RFU, SH3YL1 / Fold change vs veh, SH3YL1 / RFU, ZEB2 / Fold change vs veh, ZEB2 / RFU, NRIP1 / Fold change vs veh, NRIP1 / RFU, PTTG1IP / Fold change vs veh, PTTG1IP / RFU, CAPN2 / Fold change vs veh, CAPN2 / RFU, MED14 / Fold change vs veh, MED14 / RFU, SNORA58 / Fold change vs veh, SNORA58 / RFU, C1orf63 / Fold change vs veh, C1orf63 / RFU, LRRFIP1 / Fold change vs veh, LRRFIP1 / RFU, NDUFAF7 / Fold change vs veh, NDUFAF7 / RFU, SLC12A2 / Fold change vs veh, SLC12A2 / RFU, IBTK / Fold change vs veh, IBTK / RFU, ESF1 / Fold change vs veh, ESF1 / Fold change vs veh, TMEM50B / RFU, TAOK1 / Fold change vs veh, TAOK1 / RFU, ACBD3 / Fold change vs veh, ACBD3 / RFU, TMA16 / Fold change vs veh, TMA16 / RFU, RWDD3 / Fold change vs veh, RWDD3 / RFU, BCAT1 / Fold change vs veh, BCAT1 / RFU, EDEM3 / Fold change vs veh, EDEM3 / RFU, TMEM33 / Fold change vs veh, TMEM33 / RFU, WDR75 / Fold change vs veh, WDR75 / RFU, AHCTF1 / Fold change vs veh, AHCTF1 / RFU, TFRC / Fold change vs veh, TFRC / RFU, ZDHHC17 / Fold change vs veh, ZDHHC17 / RFU, NOM1 / Fold change vs veh, NOM1 / RFU, ARL8B / Fold change vs veh, ARL8B / RFU, ZBTB11 / Fold change vs veh, ZBTB11 / RFU, TAMM41 / Fold change vs veh, TAMM41 / RFU, KIAA1704 /// LOC100996395 / Fold change vs veh, KIAA1704 /// LOC100996395 / RFU, ING1 / Fold change vs veh, ING1 / RFU, TRMT61B / Fold change vs veh, TRMT61B / RFU, FUBP3 / Fold change vs veh, FUBP3 / RFU, TP53 / Fold change vs veh, TP53 / RFU, TNKS2 / Fold change vs veh, TNKS2 / RFU, ZFP14 / Fold change vs veh, ZFP14 / RFU, ACTR2 / Fold change vs veh, ACTR2 / RFU, PPP3R1 / Fold change vs veh, PPP3R1 / RFU, PIK3R1 / Fold change vs veh, PIK3R1 / RFU, HNRNPA1 / Fold change vs veh, HNRNPA1 / RFU, RNF170 / Fold change vs veh, RNF170 / RFU, ZNF28 / Fold change vs veh, ZNF28 / RFU, RNGTT / Fold change vs veh, RNGTT / RFU, OGT / Fold change vs veh, OGT / RFU, BRD1 / Fold change vs veh, BRD1 / RFU, MARS / Fold change vs veh, MARS / RFU, ZNF655 / Fold change vs veh, ZNF655 / RFU, FAHD1 / Fold change vs veh, FAHD1 / RFU, BDP1 / Fold change vs veh, BDP1 / RFU, LRRCC1 / Fold change vs veh, LRRCC1 / RFU, ARID1A / Fold change vs veh, ARID1A / RFU, ZNF146 / Fold change vs veh, ZNF146 / RFU, ZNF330 / Fold change vs veh, ZNF330 / RFU, GPN3 / Fold change vs veh, GPN3 / RFU, C9orf123 / Fold change vs veh, C9orf123 / RFU, N4BP2L2 / Fold change vs veh, N4BP2L2 / RFU, ARFIP1 / Fold change vs veh, ARFIP1 / RFU, FAM179B / Fold change vs veh, FAM179B / RFU, BCL10 / Fold change vs veh, BCL10 / RFU, UHRF1BP1L / Fold change vs veh, UHRF1BP1L / RFU, BET1 / Fold change vs veh, BET1 / RFU, CNOT2 / Fold change vs veh, CNOT2 / RFU, ZNF268 / Fold change vs veh, ZNF268 / Fold change vs veh, ZNF507 / RFU, DGCR2 / Fold change vs veh, DGCR2 / RFU, WDSUB1 / Fold change vs veh, WDSUB1 / Fold change vs veh, HSP90B1 /// MIR3652 / RFU, ADSS / Fold change vs veh, ADSS / RFU, GK / Fold change vs veh, GK / RFU, ZNF148 / Fold change vs veh, ZNF148 / RFU, TAF9 / Fold change vs veh, TAF9 / RFU, SLC1A5 / Fold change vs veh, SLC1A5 / RFU, SLMO2 / Fold change vs veh, SLMO2 / RFU, ABCC4 / Fold change vs veh, ABCC4 / RFU, LOC101060439 /// RAP1B / Fold change vs veh, LOC101060439 /// RAP1B / RFU, RFX7 / Fold change vs veh, RFX7 / RFU, GTPBP10 / Fold change vs veh, GTPBP10 / RFU, CNEP1R1 / Fold change vs veh, CNEP1R1 / RFU, BIVM-ERCC5 /// ERCC5 / Fold change vs veh, BIVM-ERCC5 /// ERCC5 / RFU, ILF3 / Fold change vs veh, ILF3 / RFU 11762660_at / Fold change /veh 11762660_at / RFU VCAN (11757783_s_at) / Fold change /veh VCAN (11757783_s_at) / RFU DDX43 (11728927_at) / Fold change /veh DDX43 (11728927_at) / RFU KRT8 (11758188_x_at) / Fold change /veh KRT8 (11758188_x_at) / RFU NKD1 (11759106_at) / Fold change /veh NKD1 (11759106_at) / RFU SRD5A1 (11742802_a_at) / Fold change /veh SRD5A1 (11742802_a_at) / RFU TPSAB1 /// TPSB2 (11721975_s_at) / Fold change /veh TPSAB1 /// TPSB2 (11721975_s_at) / RFU GSTM3 (11746129_a_at) / Fold change /veh GSTM3 (11746129_a_at) / RFU IL23R (11737362_x_at) / Fold change /veh IL23R (11737362_x_at) / RFU TMEM51 (11727254_a_at) / Fold change /veh TMEM51 (11727254_a_at) / RFU PIWIL2 (11732686_x_at) / Fold change /veh PIWIL2 (11732686_x_at) / RFU ORM1 (11744905_x_at) / Fold change /veh ORM1 (11744905_x_at) / RFU CCDC152 (11743942_at) / Fold change /veh CCDC152 (11743942_at) / RFU ECM1 (11717891_a_at) / Fold change /veh ECM1 (11717891_a_at) / RFU IL23R (11748794_a_at) / Fold change /veh IL23R (11748794_a_at) / RFU TNFAIP8L3 (11732012_x_at) / Fold change /veh TNFAIP8L3 (11732012_x_at) / RFU MBOAT4 (11741988_at) / Fold change /veh MBOAT4 (11741988_at) / RFU 11764193_at / Fold change /veh 11764193_at / RFU TMEM53 (11763286_at) / Fold change /veh TMEM53 (11763286_at) / RFU MAGEB2 (11727129_at) / Fold change /veh MAGEB2 (11727129_at) / RFU TMEM200A (11744735_a_at) / Fold change /veh TMEM200A (11744735_a_at) / RFU CCDC152 (11751479_a_at) / Fold change /veh CCDC152 (11751479_a_at) / RFU FAM211A (11726209_a_at) / Fold change /veh FAM211A (11726209_a_at) / RFU RGS16 (11746705_a_at) / Fold change /veh RGS16 (11746705_a_at) / RFU VCAN (11755009_s_at) / Fold change /veh VCAN (11755009_s_at) / RFU RHOB (11743442_s_at) / Fold change /veh RHOB (11743442_s_at) / RFU RGS16 (11720943_a_at) / Fold change /veh RGS16 (11720943_a_at) / RFU RGS16 (11720944_at) / Fold change /veh RGS16 (11720944_at) / RFU, VPS4B / Fold change vs veh, VPS4B / RFU, CREB1 / Fold change vs veh, CREB1 / RFU, DNAJC13 / Fold change vs veh, DNAJC13 / RFU, GNAQ / Fold change vs veh, GNAQ / RFU, CDK5R1 / Fold change vs veh, CDK5R1 / RFU, ZRANB3 / Fold change vs veh, ZRANB3 / RFU, CUL4A / Fold change vs veh, CUL4A / RFU, CCNY / Fold change vs veh, CCNY / RFU, UFL1 / Fold change vs veh, UFL1 / RFU, COG3 / Fold change vs veh, COG3 / RFU, DIAPH2 / Fold change vs veh, DIAPH2 / RFU, SKA2 / Fold change vs veh, SKA2 / RFU, AFF3 / Fold change vs veh, AFF3 / RFU, LMF1 / Fold change vs veh, LMF1 / RFU, IPO11 / Fold change vs veh, IPO11 / RFU, DFFB / Fold change vs veh, DFFB / RFU, FOXP1 / Fold change vs veh, FOXP1 / RFU, CARD8 / Fold change vs veh, CARD8 / RFU, STRN3 / Fold change vs veh, STRN3 / RFU, ADK / Fold change vs veh, ADK / RFU, RASSF2 / Fold change vs veh, RASSF2 / RFU, WIPF1 / Fold change vs veh, WIPF1 / RFU, LARP1B / Fold change vs veh, LARP1B / RFU, RASA1 / Fold change vs veh, RASA1 / RFU, RB1 / Fold change vs veh, RB1 / RFU, PPFIA1 / Fold change vs veh, PPFIA1 / RFU, MAT2A / Fold change vs veh, MAT2A / RFU, CCT5 / Fold change vs veh, CCT5 / RFU, WDR92 / Fold change vs veh, WDR92 / RFU, CUX1 / Fold change vs veh, CUX1 / RFU, TTC7A / Fold change vs veh, TTC7A / RFU, TMEM135 / Fold change vs veh, TMEM135 / RFU, DEPTOR / Fold change vs veh, DEPTOR / RFU, CPM / Fold change vs veh, CPM / RFU, DNAJB6 / Fold change vs veh, DNAJB6 / RFU, CACNA2D3 / Fold change vs veh, CACNA2D3 / RFU, DTX4 / Fold change vs veh, DTX4 / RFU, TFCP2 / Fold change vs veh, TFCP2 / RFU, GMCL1 /// GMCL1P1 / Fold change vs veh, GMCL1 /// GMCL1P1 / RFU, AEBP2 / Fold change vs veh, AEBP2 / RFU, SNHG1 /// SNORD22 /// SNORD25 /// SNORD26 /// SNORD27 /// SNORD28 /// SNORD29 /// SNORD31 / Fold change vs veh, SNHG1 /// SNORD22 /// SNORD25 /// SNORD26 /// SNORD27 /// SNORD28 /// SNORD29 /// SNORD31 / Fold change (Aza/veh), C12orf56 (ProbeSet 11735607_a_at) / Fold change (ACY-1035/veh), C12orf56 (ProbeSet 11735607_a_at) / Fold change (Aza/veh), FGFR1OP (ProbeSet 11751329_s_at) / Fold change (ACY-1035/veh), FGFR1OP (ProbeSet 11751329_s_at) / Fold change (Aza/veh), VPS36 (ProbeSet 11739960_a_at) / Fold change (ACY-1035/veh), VPS36 (ProbeSet 11739960_a_at) / RFU SYPL1 (11715823_x_at) / Fold change /veh SYPL1 (11715823_x_at) / RFU IGFBP7 (11715501_s_at) / Fold change /veh IGFBP7 (11715501_s_at) / RFU REEP3 (11722064_at) / Fold change /veh REEP3 (11722064_at) / RFU IGLL1 (11728026_x_at) / Fold change /veh IGLL1 (11728026_x_at): dose or concentration left out as unconfirmed
Settings: MV-4-11 cells, 48 hours

Nc1ccc(-c2cccs2)cc1NC(=O)c1ccc2c(c1)cc(C1CC1)n2CCN1CCOCC1 [ACY-1035]
RFU NKD1 (11759106_at): 19.24 RFU
